The values that follow come from patent US8629318B2, “Transgenic animals for analyzing CYP3A4 cytochrome P450 gene regulation” (University of Sydney, priority 2000, dated 2014).

“Also recorded” adds a separate entry of the source.

The subject of data set [1] is −13CYP3A4/lacZ transgene. The experiment in a line: β-galactosidase activity in total liver lysates, ONPG assay, line 9/4. Particulars: 100 mg/kg i.p. daily for 4 days, FIG. 3A. Type of data set: in vivo, mouse. The method, then:
(§1) Administration of xenobiotics to mice. 8-10 week old male and female mice hemizygous for the −CYP3A4/lacZ and −13CYP3A4/lacZ transgenes were used to test the ability of a range of xenobiotics and hormones to activate expression of transgene-derived β-galactosidase. […] The dose used for all reagents to test for induction of the transgene was 100 mg/kg body weight. Dose response studies were carried out in the range of 1-100 mg/kg with male hemizygous transgenic mice.
(§2) Analysis of transgene and mouse Cyp3a gene expression. β-galactosidase activity was visualised in slices and frozen sections of liver and other tissues by staining with X-gal (5-bromo-4-chloro-3-indolyl-β-D-galactopyranoside). Tissues were fixed in 0.25% glutaraldehyde, 0.1 M phosphate buffer pH7.3, 5 mM EGTA, 2 mM MgCl2: washed in 0.1 M phosphate buffer pH7.3, 0.01% sodium deoxycholate, 0.025% NP40, 2 mM MgCl2 and stained by incubation at 37° C. in wash solution supplemented with 1 mg/ml X-gal, 5 mM potassium ferricyanide, and 5 mM potassium ferrocyanide. The level of β-galactosidase activity was determined in whole liver homogenates [100 mg fresh tissue/ml 0.25M Tris-HCl (pH 7.3)] using the O-nitrophenyl-β-D-galactopyranoside (ONPG) assay according to standard techniques. After appropriate dilution the homogenate was incubated with β-galactosidase assay reagent (0.1 M sodium phosphate buffer (pH7.3)/1 mM MgCl2/50 mmol β-mercaptoethanol/0.88 mg/ml ONPG) at 37° C., quenched by the addition of 1 M Na2CO3 and the absorbance at 420 nm determined. The units of β-galactosidase activity are given as A420/mg liver/minute.

Data set [2] deals with −13CYP3A4/lacZ transgene. The method, then: as §1, §2
In a further data set the test system is mouse Cyp3all gene. Particulars: in vivo, ip, 100 mg/kg. The method, then:
as §1
Filters were stripped and reprobed with an 18S rRNA oligonucleotide to normalise loading.

Data set [3] has as its system −13CYP3A4/lacZ transgene. Put plainly: Xenobiotic induction of transgene expression in line 15/10. Type of data set: in vivo, mouse. Particulars: data not shown. The method, then: as §1
Analysis of transgene and mouse Cyp3a gene expression. β-galactosidase activity was visualised in slices and frozen sections of liver and other tissues by staining with X-gal (5-bromo-4-chloro-3-indolyl-β-D-galactopyranoside). […] The level of β-galactosidase activity was determined in whole liver homogenates [100 mg fresh tissue/ml 0.25M Tris-HCl (pH 7.3)] using the O-nitrophenyl-β-D-galactopyranoside (ONPG) assay according to standard techniques. After appropriate dilution the homogenate was incubated with β-galactosidase assay reagent (0.1 M sodium phosphate buffer (pH7.3)/1 mM MgCl2/50 mmol β-mercaptoethanol/0.88 mg/ml ONPG) at 37° C., quenched by the addition of 1 M Na2CO3 and the absorbance at 420 nm determined. […]

For `CC(=O)[C@H]1CC[C@H]2[C@@H]3CC=C4C[C@@H](O)CC[C@]4(C)[C@H]3CC[C@]12C` [pregnenolone], the “relative degree of induction of transgene, β-galactosidase activity in liver lysates” value (shortened to “relative degree”) in the data set on −13CYP3A4/lacZ transgene [1] (100 mg/kg) was “very weak inducers; also recorded: the induction was weak compared with xenobiotics”.

For the compound `CC(=O)[C@H]1[C@H](C#N)C[C@H]2[C@@H]3CC=C4C[C@@H](O)CC[C@]4(C)[C@H]3CC[C@@]21C` [pregnenolone 16α-carbonitrile], the “hepatic transgene expression, X-gal staining of liver slices (cells containing β-galactosidase)” value in the data set with −13CYP3A4/lacZ transgene [2] (female mice line 9/4, 100 mg/kg i.p. daily for 4 days, compared with corn oil treated mice) is “increased zone of blue staining cells”. Besides, the “relative degree” value with −13CYP3A4/lacZ transgene [1] (100 mg/kg) is “most potent xenobiotic activators; also recorded: most potent inducers”. For the same compound, the “hepatic Cyp3all mRNA, females versus males” value with mouse Cyp3all gene is reported as “higher levels of Cyp3all mRNA were observed in females than males”.

Consider `C[C@@H]1C[C@H]2[C@@H]3CCC4=CC(=O)C=C[C@]4(C)[C@@]3(F)[C@@H](O)C[C@]2(C)[C@@]1(O)C(=O)COP(=O)(O)O` [dexamethasone, dexamethasone phosphate], for which the “thickness of zone of X-gal positive hepatocytes” value in the data set on −13CYP3A4/lacZ transgene [2] (line 9/4, 100 mg/kg, FIG. 4B) is “up to 10 cells”. Also, the “thickness of zone of hepatocytes expressing the transgene around the central vein (X-gal)” value in the data set with −13CYP3A4/lacZ transgene [2] (line 9/4, low doses, FIG. 4B) was 1-2 cells. Also, the “induction profile of transgene expression” value with −13CYP3A4/lacZ transgene [3] is “most potent activator”.

Turning to `Clc1ccccc1C(c1ccccc1)(c1ccccc1)n1ccnc1` [clotrimazole], in the data set with −13CYP3A4/lacZ transgene [1], the “relative degree” value is listed as “intermediate inducers”.

For the compound `O=C1NC(=O)C(c2ccccc2)(c2ccccc2)N1` [phenyloin], in the data set on −13CYP3A4/lacZ transgene [1], the “relative degree” value was “intermediate inducers”.
